Patent US20230012172A1, “COMPOSITIONS AND METHODS FOR TREATMENT OF PLATINUM-BASED CHEMOTHERAPEUTIC RESISTANT TUMORS” (The George Washington University, priority 2020, published 2023)

Key:
PEO4 cells = experiment: Cell viability assay (SRB) in PEO4 cells; assay type: cell-based
Experimental: (§1) Cell culture and resistance cell line establishment. IGROV1 cells, U2OS (HTB-96; ATCC), HEK293T (CRL-11268; ATCC) and SKOV3 cells (HTB-77; ATCC) were cultured at 37° C. in DMEM with 10% Fetal Bovine Serum (FBS). PEO1 (10032308; Sigma-Aldrich), PEO4 (10032309; Sigma-Aldrich), PEO14 (10032311; Sigma-Aldrich) and PE023 cells (10032313; Sigma-Aldrich) were cultured at 37° C. in RPMI-1640 with 10% FBS. OV90 (CRL-11732; ATCC) was cultured in medium containing 1:1 MCDB 105 (Sigma) and M199 (Sigma) supplemented with 10% FBS at 37 ° C. All the cells were cultured at in a humidified incubator with 5% CO2 atmosphere. Cisplatin resistant cell lines, including SKOV3 CR, IGROV1 CR and OV90 CR, were generated using an approach similar to that reported in Zhou et al., (2018) Oncogene 37, 3981-3997, the disclosure of which is incorporated herein in its entirety.
(§2) Cell viability assay. Cells were seeded at 3,000 cells/well in 96-well plates were treated with drugs, followed by incubation for 48 hours, after which cell viability was detected using Sulforhodamine B (SRB) assay (64). Absorbance at 510 nm was detected using a SpectraMax Reader (Molecular Devices) and analyzed with SoftMax Analysis Software (Molecular Devices). Combinational index (CI) values were calculated using CompuSyn software.

PE023 cells = experiment: Cell viability assay (SRB) in PE023 cells; assay type: cell-based
Experimental: as §1, §2

IGROV1 CR cells = experiment: Cell viability assay (SRB) in IGROV1 CR cells; assay type: cell-based, human; details: 150 nM UA, IGROV1 CR cells
Experimental: as §1, §2

SENP1 = biological target: T1, SENP1 (Homo sapiens, UniProt Q9P0U3); experiment: Cellular thermal shift assay; details: IGROV1 cells, higher temperature
T1 sequence (Q9P0U3 1-644): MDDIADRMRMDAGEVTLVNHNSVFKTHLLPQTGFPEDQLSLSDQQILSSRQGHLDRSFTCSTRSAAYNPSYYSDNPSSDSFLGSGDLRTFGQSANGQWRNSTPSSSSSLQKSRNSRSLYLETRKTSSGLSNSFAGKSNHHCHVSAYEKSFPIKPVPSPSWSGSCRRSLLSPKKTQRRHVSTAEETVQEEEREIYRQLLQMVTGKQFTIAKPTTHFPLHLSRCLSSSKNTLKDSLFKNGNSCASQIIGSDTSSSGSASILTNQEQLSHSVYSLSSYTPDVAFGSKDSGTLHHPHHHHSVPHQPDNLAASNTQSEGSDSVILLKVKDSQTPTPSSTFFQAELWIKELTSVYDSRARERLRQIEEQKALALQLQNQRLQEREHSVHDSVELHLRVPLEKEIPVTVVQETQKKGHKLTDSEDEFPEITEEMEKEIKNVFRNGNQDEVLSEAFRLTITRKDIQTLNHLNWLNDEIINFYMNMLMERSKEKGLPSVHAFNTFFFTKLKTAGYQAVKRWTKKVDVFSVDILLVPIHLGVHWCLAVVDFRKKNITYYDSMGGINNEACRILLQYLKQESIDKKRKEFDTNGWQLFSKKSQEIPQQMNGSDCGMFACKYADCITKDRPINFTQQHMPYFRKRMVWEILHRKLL
Experimental: To determine whether UA binds to SENP1 directly, cellular thermal shift assays were performed in which a small molecule binds to a protein resulting in thermal stabilization of the protein.

SMILES	re-sensitization to cisplatin (PEO4 cells)	synergy with cisplatin (combination index) (PEO4 cells)	re-sensitization to cisplatin (PE023 cells)	synergy with cisplatin (combination index) (PE023 cells)	CI value with cisplatin, cell survival (IGROV1 CR cells)	SENP1 protein thermal stabilization versus DMSO (SENP1)
CC1(C)CC[C@]2(C(=O)O)CC[C@]3(C)C(=CC[C@@H]4[C@@]5(C)CC[C@H](O[C@@H]6O[C@H](C(=O)O)[C@@H](O)[C@H](O[C@@H]7OC[C@@H](O)[C@H](O)[C@H]7O)[C@H]6O)C(C)(C)[C@@H]5CC[C@]43C)[C@@H]2C1 [Mc, Momordin Ic]	re-sensitized	synergy	re-sensitized	synergy		
C[C@H]1[C@H](C)CC[C@]2(C(=O)O)CC[C@]3(C)C(=CC[C@@H]4[C@@]5(C)CC[C@H](O)C(C)(C)[C@@H]5CC[C@]43C)[C@H]12 [UA, ursolic acid]					< 1	stabilized
